# Data reported in patent US12268666B2, “Spray-dried dispersions, formulations, and polymorphs of (S)-5-amino-3-(4-((5-fluoro-2-methoxybenzamido)methyl)phenyl)-1-(1,1,1-trifluoropropan-2-yl)-1H-pyrazole-4-carboxamide” (Loxo Oncology, Inc., priority 2018, dated 2025).
# Read-outs that look alike come from different tables or passages of the source.
# Assays:
# [1] = molecular target: T1, BTK wild type (Homo sapiens, UniProt Q06187); assay: Y223 autophosphorylation in HEK293 cells stably expressing BTK; format: cell-based; conditions: 2 hr treatment, signal normalized to total BTK
# T1 construct: expressed in transfected cells; host or cells: HEK293
# Protocol: HEK293 cell lines stably expressing BTK wild type and the mutant form C481S are generated using standard transfection methods. For assessment of cellular inhibition potency, cells are grown in DMEM +10% Fetal Bovine Serum (FBS)+1 μg/ml puromycin (complete growth media) at 37° C. in a CO2 incubator. Cells are harvested according to standard protocols using TRYPLE™ (Gibco #12604-013), counted, resuspended in complete growth media, and added to 6 well assay plates at 4×10 ^5 cell/well in 2 mL. Plates are incubated overnight at 37° C. with 5% CO2. […] All samples are tested in triplicate. Following compound incubation, the growth medium is discarded, cells are washed with DPBS (1×) (Gibco #14190-144) and lysed in 1 mL of […]™ M (Sigma #C2978) containing 1× Halt phosphatase and protease inhibitor cocktails (Pierce #78442). Plates are placed on ice for 1 hr with gentle agitation and stored at −80° C. overnight. The next day, cell lysates are placed in 1.5 mL tubes and cleared by centrifugation at 16,000×g for 10 min at 4° C. Supernatants are quantified by BCA (Pierce #23225) and stored at −80° C. Samples are analyzed by Simple Western (Protein Simple) with anti-phospho-BTK (Y223) (Cell Signaling Technologies (CST) #5082) and anti-BTK (CST #8547) (FIGS. 10A and 10B). β-actin is used as a loading control and detected by regular Western blot with an anti-3-actin antibody (CST #4970).
# [2] = molecular target: T2, BTK (Homo sapiens, UniProt Q06187); assay: BTK Y223 autophosphorylation in Ramos RA1 cells; format: cell-based; conditions: anti-human IgM stimulation
# T2 construct: host or cells: Ramos RA1
# Protocol: Ramos RA1 cells, obtained from ATCC (CRL-1596), are grown in RPMI 1640+10% fetal bovine serum (FBS) at 37° C. in a CO2 incubator. […] Nine hundred μL of cell/well are added to 24 well plates and 100 uL of 10× stocks of inhibitor are added. The 10× compound of Formula I stocks are prepared in 1% DMSO, by doing a 1:3 dilution series with final concentrations in the wells ranging between 900 nM to 0.41 nM. […] All samples are tested in triplicate. After 2 hours (starvation and dosing) sodium orthovanadate is added to a final concentration of 200 μM and incubated for 30 more min. Cells are then stimulated with 4 uL of goat F(ab′)2 anti-human IgM (Jackson ImmunoResearch #109-006-129) for 5 min at room temperature, spun down, resuspended in 100 uL of […]™ M (Sigma #C2978) containing 5× Halt phosphatase and protease inhibitor cocktails (Pierce #78442), and stored at −80° C. Lysates are quantified by BCA (Pierce #23225) and analyzed by Simple Western (Protein Simple) with the following antibodies: anti-phospho-BTK (Y223) (Cell Signaling Technologies (CST) #5082), anti-BTK (CST #8547), anti-phospho-PLCγ2 (Y1217) (CST 3871), anti-PLCγ2 (CST 3872), and anti-GAPDH (GAPDH refers to glyceraldehyde 3-phosphate dehydrogenase) (Novus #MAB5718-SP). […] Results are analyzed with Compass software (Protein Simple), and IC50 values are calculated on GraphPad Prism 7.04 software.
# [3] = test system: TMD8 cells; assay: BTK-dependent proliferation of TMD8 diffuse large B-cell lymphoma cell line; format: cell-based; conditions: Homo sapiens, from AUC of real-time confluence curves, 0.1 to 1,000 nM
# Protocol: The TMD8 cells are maintained in RPMI 1640 (Gibco Catalog #31870-025) with 10% Fetal Calf Serum (FCS), 1% GLUTAMAX™, Non-Essential Amino-Acids and 1 mM sodium pyruvate. The cells are harvested by centrifugation (5 min, 1200 rpm) prior to reaching a concentration of 3×10^6 cells/mL. The medium is removed and cell pellet resuspended in fresh medium before counting with a Cellometer (Nexcelom). TMD8 cells are seeded at 5×10^4 cells/mL in 20 mL of culture medium in a T75 culture flask and held at 37° C. with 5% CO2.
# The anti-proliferation activity of the compound of Formula I with TMD8 cells is accessed by the addition of increasing concentrations of inhibitor from 0.1 to 1,000 nM. A dose-dependent inhibition is observed by real-time assessment of TMD8 confluence. Individual curves for each compound of Formula I concentration are represented in the FIG. 12A.
# [4] = molecular target: BTK C481S (Homo sapiens, UniProt Q06187, C481S); assay: BTK activity assay, [33P]-ATP incorporation into poly-EY; format: biochemical; parameters: against full-length wild type (WT) and mutant human BTK enzymes
# Protocol: The activity of the compound of Formula I against full-length wild type (WT) and mutant human BTK enzymes is determined by monitoring the incorporation [^33P]-PO4 from [γ-^33P]-ATP into poly-glutamic acid-tyrosine (poly-EY) peptide substrate. The reaction mixtures each contained polyhistidine-tagged BTK enzyme, poly-EY and BTK inhibitor at the appropriate concentrations. The reaction mixtures are incubated for 20 minutes at room temperature after which [[γ-^33P]-ATP (radiochemical concentration 10 μCi/μL) at 10 μM or the ATP Km concentration for each enzyme is added. After 2 hours of incubation at room temperature, the radiolabeled peptide substrate is captured, and incorporated radioactivity is quantified.
# Each assay is performed at an ATP concentration close to the Km for each enzyme. […] After co-incubation with a serial dilution of the compound of Formula I, the quantity of ^33P incorporated into a peptide substrate is measured and the data analyzed using standard curve fitting methods.
# Chain of BTK C481S (Q06187 whole entry C481S): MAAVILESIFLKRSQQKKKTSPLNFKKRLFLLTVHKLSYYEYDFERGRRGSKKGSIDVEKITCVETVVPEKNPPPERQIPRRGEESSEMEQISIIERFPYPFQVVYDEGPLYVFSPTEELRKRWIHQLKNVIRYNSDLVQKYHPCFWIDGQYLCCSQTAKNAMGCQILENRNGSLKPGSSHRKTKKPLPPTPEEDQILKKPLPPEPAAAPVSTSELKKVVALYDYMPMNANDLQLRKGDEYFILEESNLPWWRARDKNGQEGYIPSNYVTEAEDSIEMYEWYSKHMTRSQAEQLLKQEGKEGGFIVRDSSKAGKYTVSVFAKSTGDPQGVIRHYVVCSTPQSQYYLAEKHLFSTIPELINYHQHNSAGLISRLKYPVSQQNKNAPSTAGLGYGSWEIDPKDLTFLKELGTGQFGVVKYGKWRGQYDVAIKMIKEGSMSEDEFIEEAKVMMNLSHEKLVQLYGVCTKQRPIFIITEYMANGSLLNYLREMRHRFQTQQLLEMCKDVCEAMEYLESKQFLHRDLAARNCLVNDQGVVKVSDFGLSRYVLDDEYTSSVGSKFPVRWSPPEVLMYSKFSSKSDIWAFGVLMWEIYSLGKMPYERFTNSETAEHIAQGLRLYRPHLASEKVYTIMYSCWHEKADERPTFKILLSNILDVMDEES
# T1 sequence (Q06187 whole entry): as the sequence (Q06187 whole entry C481S) above, with S481C counted along it
# T2 sequence (Q06187 whole entry): as the sequence (Q06187 whole entry C481S) above, with S481C counted along it
structure (smiles),measurement,setting,value
"COc1ccc(F)cc1C(=O)NCc1ccc(-c2nn([C@@H](C)C(F)(F)F)c(N)c2C(N)=O)cc1 [compound of Formula I, (S)-5-amino-3-(4-((5-fluoro-2-methoxybenzamido)methyl)phenyl)-1-(1,1,1-trifluoropropan-2-yl)-1H-pyrazole-4-carboxamide]",IC50,[1],8.6 ± 0.3 nM
same,IC50,[2],3.2 ± 0.6 nM
same,IC50,[3],2.33 nM
same,IC50,"[4]; 10 μM ATP, read-out: IC50",0.29 nM
same,IC50,"[4]; ATP at Km concentration, read-out: IC50 value",1.42 nM
